From patent US20070149406A1, “Plant growth regulation” (Bayer CropScience GmbH, priority 2003, published 2007)

Tests used:
[1] = tested on: maize (Zea mays, variety “LORENZO”); assay: Root growth assay, maize; assay type: in vivo; conditions: for Root Growth: wet root weight 16 days post treatment, Root Growth of 100 set as the standard
Excerpt: (§1) Plant roots are a highly proliferative tissue that allows an easy accessible, cheap and short term screening method for plant growth regulators. The results obtained can easily be transferred to the overall effects on a plant of plant growth regulators identified by such a system. By using this root assay one is enabled to determine the effect of a seed treatment to root growth and/or germination and/or changes in habitat of germinated plants in order to identify the possible use as a yield enhancer. Two seeds of wheat (Triticum aestivum, variety “TRISO”) or 1 seed of maize (Zea mays, variety “LORENZO”) per hole in a plastic tray which contains an architecture of 8×13 holes were placed on compost soil covered with sand. These seeds were treated with 100 μl/ hole, which creates an application volume of approx. 1200 I/ha, of a compound solution at active ingredient rates equivalent to 100, 10 and 1 g a.i./ha of each compound using an robotic application system (Lizzy Spray Robotics). Six replicates in a row of each compound and concentration were done. The outer rim of the above defined plastic tray was untreated to avoid false negative effects and the middle row (No. 7) was used as untreated control. The treated seeds were allowed to dry for approx. 4 hours and subsequently covered with sand and watered. The trays were stored in climate chambers with 14 hours lighting at a temperature of 24° C. (±2) at daytime and 16° C. (±2) at night and relative humidity (rH) of 60% and daily watered. Assessments were done 16 (±2) days post treatment by counting the germinated plants and assessing the phytotoxicity symptoms and percentage. In addition, the roots were washed out and the shoots were cut directly above the seed and the wet roots were placed on dry paper towels for approximately 30 minutes and weighted afterwards. This procedure provides a similar grade of moisture to the roots so that a comparison of the weights is possible. […] The effects observed concerning Root Growth given in column 2 (Root Growth of “100” is set as the standard) are directed to concentrations that are equivalent to 100, 10, 1 g a.i./ha, each.

[2] = tested on: wheat (Triticum aestivum, variety “TRISO”); assay: Root growth assay, wheat; assay type: in vivo; conditions: for Root Growth: wet root weight 16 days post treatment, Root Growth of 100 set as the standard
Excerpt: as §1

[3] = tested on: maize hybrid Magister and Zamora; assay: Field trial, seed-treated maize, grain yield; assay type: in vivo; conditions: seed treatment 1 g/100 kg seeds (0.0003 kg/ha)
Excerpt: Maize seeds of maize hybrid Magister and Zamora were seed treated with compound 1.136 at 1 g/100 kg seeds (0.0003 kg/ha). Field trials were set up in a split plot design representing the plants treated with compounds of formula (I) as well as the non-treated control plants.

Row | melting point | Compound | effect as plant growth regulator in maize (in words) [1] | Root Growth ([1]; 1 g a.i./ha) | Root Growth ([1]; 10 g a.i./ha) | Root Growth ([1]; 100 g a.i./ha) | effect as plant growth regulator in wheat (in words) [2] | Root Growth ([2]; 1 g a.i./ha) | Root Growth ([2]; 10 g a.i./ha) | Root Growth ([2]; 100 g a.i./ha) | increase in grain yield compared to non-treated control plants ([3]; maize hybrid Magister) | increase in grain yield compared to non-treated control plants ([3]; maize hybrid Zamora)
1 | – | NC(=O)c1nn(-c2c(Cl)cc(C(F)(F)F)cc2Cl)c(N)c1[S+]([O-])C(F)(F)F (stereo not shown) [Compound 1.136] | significant effects of approximately the same size | 107 | 131 | 74 | significant effects of approximately the same size | 124 | 75 | 58 | up to 119% | up to 131%
2 | – | CCCCCNC(=O)c1nn(-c2c(Cl)cc(C(F)(F)F)cc2Cl)c(N)c1[S+]([O-])C(F)(F)F (stereo not shown) [Compound 1.141] | remarkable effect | 111 | 102 | 95 | superior effect | 257 | 160 | 256 | – | –
3 | – | Nc1c([S+]([O-])C(F)(F)F)c(C(=O)NCC2CCCO2)nn1-c1c(Cl)cc(C(F)(F)F)cc1Cl (stereo not shown) [Compound 1.144] | – | – | – | – | – | 170 | 115 | 110 | – | –
4 | – | CNc1c([S+]([O-])C(F)(F)F)c(C(=O)N(C)C)nn1-c1c(Cl)cc(C(F)(F)F)cc1Cl (stereo not shown) [Compound 1.228] | – | 72 | 111 | 186 | – | – | – | – | – | –
5 | – | Nc1c(SC(F)(F)F)c(C(=O)O)nn1-c1c(Cl)cc(C(F)(F)F)cc1Cl [Compound 2.10, 5-Amino-1-(2,6-dichloro-4-trifluoromethylphenyl)-4-trifluoromethylthio-1H-pyrazole-3-carboxylic acid] | – | – | – | – | – | 158 | 118 | 134 | – | –
6 | 161 °C | CCOc1c(SC(F)(F)F)c(C(N)=O)nn1-c1c(Cl)cc(C(F)(F)F)cc1Cl [Compound 3.3, 1-(2,6-Dichloro-4-trifluoromethylphenyl)-5-ethoxy-4-trifluoromethylthio-1H-pyrazole-3-carboxylic acid amide] | – | – | – | – | – | – | – | – | – | –
